# Measurements taken from US8158589B2, “Peptides with the capacity to bind to transforming growth factor β1 (TGF-β1)” (Proyecto Biomedicine Cima, S.L., priority 2003, dated 2012).
# Ends that are not written are not given here.
# Experiments:
# [1] = target: T1, TGF-β1 (Mus musculus, UniProt P04202); test: Bleomycin-induced pulmonary fibrosis, preventive treatment started two days after bleomycin; type: in vivo, mice
# T1 construct: from tissue; host or cells: liver of Balb/C mice (CCl4 model); lung of C57BL/6 mice (bleomycin model)
# T1 sequence (P04202 279-390 limits assumed): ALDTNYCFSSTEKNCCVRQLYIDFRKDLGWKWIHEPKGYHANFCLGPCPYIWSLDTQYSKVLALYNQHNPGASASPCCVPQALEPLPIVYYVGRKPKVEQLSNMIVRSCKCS
# Description: Female C57BL/6 mice (6-8 weeks of age) were obtained from Harlan SL (Barcelona, Spain) and maintained in accordance with the ethical committee of Universidad de Navarra (Spain) for the experimental use of animals. Lung injury was induced with 0.08 units/mouse of bleomycin sulfate (Sigma, Spain) diluted in 200 μl of phosphate buffered saline (PBS). Briefly, the suspension of bleomycin was instilled by pippeting into the nose of mice previously anesthetized with 2% isoflurane vapor. PBS was instilled in mice as a negative control for pulmonary fibrosis (PF), following the same procedures. Peptide treatment was started two days after bleomycin challenge and it was administered intraperitoneally in 500 μl of PBS on alternate days. Mice received high (75 μg/mouse) or low (25 μg/mouse) doses of P17, or the high dose (75 μg/mouse) of control peptide P301. […] To study the therapeutic effect of P17 in the development of fibrosis, it was administered daily ten days after bleomycin challenge, once fibrosis was established. Twenty six days after bleomycin instillation, mice were sacrificed and lung samples were fixed in order to evaluate histological damage.
# Total RNA was purified from IMR-90 fibroblasts and whole lung samples using Ultraspec RNA (Biotecx; Houston, Tex.) according to the manufacturer's instructions. First, 1 μg of RNA was incubated with Dnase I (2 U/μl) (Gibco-BRL) for 30 min at 37° C. Then, samples were reverse-transcribed with the M-MLV Reverse transcriptase (Gibco-BRL) in the presence of RNaseOUT (Gibco-BRL) with ramdon hexamers and poly (dT) oligos according to the manufacturer's protocol. Expression of human Connective Tissue Growth Factor (CTGF) mRNA induced by TGF-β1 in IMR-90 fibroblasts was measured by real time RT-PCR using an ICycler and IQ SYBR Supermix (Bio-Rad, Italy). Actin was used as endogenous reference housekeeping gene. For in vivo analysis, expression of murine Fibronectin (FN), extra domain A of Fibronectin (EDA-FN), Collagen type I and Interferon gamma (IFN-γ) was measured in lungs, using Histone 3 as internal control. The amount of each transcript was expressed by the formula: 2^ΔCt (ΔCt=Ct(control gene)−Ct(gene)), wherein Ct is the threshold cycle number at which an increase in the signal associated with exponential growth of PCR products begins to be detected using Bio-Rad analysis software.
# Lungs were fixed by inflation with 4% paraformaldehyde overnight and dehydrated in 70% ethanol. Tissue was embedded in paraffin wax, 3 μm thick sections were prepared and stained with Masson's trichrome to measure collagen deposition. Percentage of fibrosis in the lung was evaluated by light microscopy by three different qualified persons using a blinded system.
# Dewaxed and rehydrated lung tissue sections were subjected to endogenous peroxidase inactivation with a blocking reagent (DakoCytomation, Denmark) for 10 min. They were then incubated for two hours with a 1/50 dilution in PBS of mouse anti-human α-SMA monoclonal antibody (DakoCytomation) that cross-reacts with mouse α-SMA. Next, sections were incubated for 1 hour with a peroxidase-labeled polyclonal rabbit anti-mouse immunoglobulin (DakoCytomation). Peroxidase activity was visualized using DAB+ Chromogen (DakoCytomation) as substrate and sections were counterstained with Harris hematoxylin. Expression of αSMA was evaluated by light microscopy and expressed as percentage of α-SMA positive area.
# Lymphocyte infiltrate in the lungs was also determined by immunohistochemical analysis. In this case, lung sections were incubated with a mouse anti-human αCD3 monoclonal antibody that cross-reacts with mouse CD3 (NeoMarkers, CA) and then with an anti-mouse immunoglobulin coupled with peroxidase (DakoCytomation). CD3-positive cells were counted in a whole lobe (about 20 fields).
# [2] = target: T1, TGF-β1; test: Bleomycin-induced pulmonary fibrosis, therapeutic treatment started ten days after bleomycin; type: in vivo, mice
# Description: Female C57BL/6 mice (6-8 weeks of age) were obtained from Harlan SL (Barcelona, Spain) and maintained in accordance with the ethical committee of Universidad de Navarra (Spain) for the experimental use of animals. Lung injury was induced with 0.08 units/mouse of bleomycin sulfate (Sigma, Spain) diluted in 200 μl of phosphate buffered saline (PBS). Briefly, the suspension of bleomycin was instilled by pippeting into the nose of mice previously anesthetized with 2% isoflurane vapor. PBS was instilled in mice as a negative control for pulmonary fibrosis (PF), following the same procedures. Peptide treatment was started two days after bleomycin challenge and it was administered intraperitoneally in 500 μl of PBS on alternate days. Mice received high (75 μg/mouse) or low (25 μg/mouse) doses of P17, or the high dose (75 μg/mouse) of control peptide P301. Lungs were obtained 15 or 26 days after bleomycin administration to evaluate profibrogenic gene expression or histological damage, respectively. To study the therapeutic effect of P17 in the development of fibrosis, it was administered daily ten days after bleomycin challenge, once fibrosis was established. […]
# Lungs were fixed by inflation with 4% paraformaldehyde overnight and dehydrated in 70% ethanol. […] Percentage of fibrosis in the lung was evaluated by light microscopy by three different qualified persons using a blinded system.
# [3] = target: T2, TGF-β1 (Homo sapiens, UniProt P01137); test: Western Blot of p-Smad2, Smad2/3 and Smad7 in primary culture of rabbit corneal fibroblasts; type: cell-based; set-up: host or cells: added to a primary culture of rabbit corneal fibroblasts; conditions: primary culture, TGF-β1 and peptide
# T2 sequence (P01137 279-390 limits assumed, species assumed): as the sequence (P04202 279-390 limits assumed) above, with S75A counted along it
# Description: (§1) Therefore, Western Blot and immunofluorescence studies were conducted to determine, from cells extracted from the in vivo studies, the signaling pathway used by the peptides administered topically. It should be emphasized that said studies were conducted on fibroblasts from rabbit cornea and not from rat cornea. This decision was made due to the difficulty entailed in isolating fibroblasts from rodent eyes.
# Since the scientific literature repeatedly describes the TGF-β1 signaling pathways, the decision was made to go into depth in such pathways by means of the techniques described in the methodology section. Said pathways involve the study of the Smad protein family, specifically the study of the isoforms Smad2, 2/3 and 7.
# To that end, protein extracts obtained from the primary culture of rabbit fibroblasts were treated with TGF-β1 at concentrations of 0, 3 and 5 ng/ml and, 50 and 200 μg/ml of peptide p17 and p144.
# [4] = target: T2, TGF-β1; test: Immunofluorescence of p-Smad2 translocation to the nucleus in rabbit corneal fibroblasts; type: cell-based; set-up: host or cells: added to a primary culture of rabbit corneal fibroblasts; conditions: TGF-β1 treated rabbit corneal fibroblasts
# Description: as §1
# [5] = 75 μg/mouse, 14 days after bleomycin instillation, RT-PCR
sequence,measurement,setting,value
"KRIWFIPRSSWYERA [SEQ ID NO: 17, KRIWFIPRSSWYERA]",lung fibrosis (Masson's Trichrome),"[1]; 25 μg/mouse intraperitoneally on alternate days from day 2, day 26",No beneficial effect
same,lung fibrosis (Masson's Trichrome),"[1]; 75 μg/mouse intraperitoneally on alternate days from day 2, day 26, vs control peptide",significant decrease of fibrosis
same,collagen type I mRNA in lungs,[1]; [5],significant reduction
same,fibronectin mRNA in lungs,[1]; [5],significantly downregulated
same,EDA-FN mRNA in lungs,"[1]; 75 μg/mouse, 14 days after bleomycin instillation, vs control peptide",lower expression levels
same,IFN-γ mRNA expression in lungs,"[1]; 75 μg/mouse, RT-PCR",upregulated
same,T lymphocytes (CD3+ cells) in lung sections,"[1]; 75 μg/mouse, vs bleomycin mice with or without P301",significant reduction
same,IL-10 or IL-4 mRNA expression in lungs,"[1]; P17 vs P301 control peptide, RT-PCR, data not shown",did not show any significant difference
same,areas of myofibroblasts (α-SMA expression) in lungs,"[1]; high dose 75 μg/mouse, immunohistochemistry",fewer areas of myofibroblasts
same,"lung fibrosis (Masson's Trichrome), established fibrosis","[2]; 25 μg/mouse daily from day 10, day 26",No beneficial effect
same,"lung fibrosis (Masson's Trichrome), established fibrosis","[2]; 75 μg/mouse daily from day 10, day 26, vs untreated mice",significant attenuation of fibrosis
same,expression of Smad 2/3,[3],not affected
same,expression of Smad 7,[3],not modified
same,translocation of p-Smad2 to the nucleus,[4],did not inhibit
